# Measurements published in ChEMBL document CHEMBL5244272 (Eur J Med Chem, 2021).
# pIC50: −log10 of the molar value.
# Key:
# Assay type in all cases: functional, organism-based
# [1] = system: Plasmodium falciparum; assay: Antimalarial activity against Plasmodium falciparum NF54
# [2] = system: Plasmodium falciparum; assay: Antimalarial activity against Plasmodium falciparum W2
# [3] = system: Plasmodium falciparum; assay: Antimalarial activity against Plasmodium falciparum D6
# [4] = system: Plasmodium falciparum; assay: Antimalarial activity against Plasmodium falciparum D10
# [5] = system: Plasmodium falciparum; assay: Antimalarial activity against Plasmodium falciparum 3D7
# [6] = system: Plasmodium falciparum; assay: Antimalarial activity against Plasmodium falciparum K1
smiles,measurement,setting,value
C[C@H]1[C@H](N2CCNCC2)O[C@@H]2O[C@]3(C)CC[C@H]4[C@H](C)CC[C@@H]1[C@@]24OO3,pIC50,[1],8.49
C[C@H]1[C@@H](O[C@H](CCC(=O)O)c2ccc(Cl)cc2)O[C@@H]2O[C@]3(C)CC[C@H]4[C@H](C)CC[C@@H]1[C@@]24OO3,IC50,[2],0.357 ng/mL
same,IC50,[3],0.38 ng/mL
C[C@H]1[C@@H](Nc2cccc(F)c2)O[C@@H]2O[C@]3(C)CC[C@H]4[C@H](C)CC[C@@H]1[C@@]24OO3,IC50,[2],< 0.16 ng/mL
same,IC50,[3],< 0.16 ng/mL
C[C@H]1[C@H](N2CCN([C@@H]3O[C@H](CO)[C@@H](O)[C@H](O)[C@H]3O)CC2)O[C@@H]2O[C@]3(C)CC[C@H]4[C@H](C)CC[C@@H]1[C@@]24OO3,pIC50,[2],9.15
same,pIC50,[4],9.06
C=C(c1ccc(F)cc1F)C1COC2(OO1)C1CC3CC(C1)CC2C3 (stereo not drawn),pIC50,[5],7.59
C[C@H]1[C@@H](OCc2ccc(C(=O)O)cc2)O[C@@H]2O[C@@]3(C)CC[C@H]4[C@H](C)CC[C@@H]1[C@@]24OO3,IC50,[2],1.38 ng/mL
same,IC50,[3],4.07 ng/mL
C[C@H]1[C@H](N2CCN([C@@H]3O[C@H](CO)[C@H](O)[C@H]3O)CC2)O[C@@H]2O[C@]3(C)CC[C@H]4[C@H](C)CC[C@@H]1[C@@]24OO3,pIC50,[2],9.24
same,pIC50,[4],9.18
C[C@@H]1CCCCC12OOC1(CCCC[C@@H]1C)OO2 (stereo partly drawn) [WR-148999],pIC50,[2],8.14
same,pIC50,[3],8.08
C[C@H]1[C@@H](O[C@H](CCC(=O)O)c2ccc(Br)cc2)O[C@@H]2O[C@]3(C)CC[C@H]4[C@H](C)CC[C@@H]1[C@@]24OO3,IC50,[2],0.313 ng/mL
same,IC50,[3],0.405 ng/mL
CC1(C)OOC2(OCC34CC5CC(CC(C5)C3)C4)CCCC1C2 (stereo not drawn),pIC50,[2],6.57
same,pIC50,[4],6.48
CCCCC(=O)C1=C(C)[C@@H]2CC[C@@H](C)[C@@H]3CC[C@]4(C)OO[C@@]23[C@H](O1)O4,pIC50,[1],8.37
C[C@@H]1CC[C@H]2[C@@H](CCCc3cc(C(F)(F)F)cc(C(F)(F)F)c3)C(=O)O[C@@H]3O[C@]4(C)CC[C@@H]1[C@]32OO4,IC50,[2],7.11 ng/mL
same,IC50,[3],0.78 ng/mL
same,IC50,[6],4.06 ng/mL
C[C@H]1[C@@H](O[C@@H]2O[C@H](CO)[C@@H](O)[C@H](O)[C@H]2O)O[C@@H]2O[C@]3(C)CC[C@H]4[C@H](C)CC[C@@H]1[C@@]24OO3,IC50,[2],0.19 ng/mL
same,IC50,[3],2.48 ng/mL
COC(=O)CC[C@@H](C)[C@H]1CCC2C3CC[C@@H]4CC5(CC[C@]4(C)C3C[C@H](OC(C)=O)[C@@]21C)OOC(C)(C)OO5 (stereo partly drawn),pIC50,[6],8.52
CCCCNC(=O)CCC(C)[C@H]1CCC2C3C(C[C@H](OC(C)=O)[C@@]21C)[C@@]1(C)CC[C@]2(C[C@@H]1C[C@H]3OC(C)=O)OO[C@@]1(CC[C@@H]3C[C@@H](OC(C)=O)C4C5CC[C@H](C(C)CCC(=O)NCCCC)[C@@]5(C)[C@@H](OC(C)=O)CC4[C@@]3(C)C1)OO2 (stereo partly drawn),pIC50,[3],8.03
CC1=C(C(=O)c2ccccc2)O[C@@H]2O[C@]3(C)CC[C@H]4[C@H](C)CC[C@@H]1[C@@]24OO3,pIC50,[1],8.34
CC(C)OC[C@H]1O[C@@H](O[C@H]2O[C@@H]3O[C@]4(C)CC[C@H]5[C@H](C)CC[C@@H]([C@H]2C)[C@@]35OO4)[C@H](O)[C@@H](O)[C@@H]1OC(C)C,IC50,[2],0.31 ng/mL
same,IC50,[3],1.43 ng/mL
C[C@@H]1CC[C@H]2[C@@H](C)C(=O)N(C(=O)c3ccc([N+](=O)[O-])cc3)[C@@H]3O[C@]4(C)CC[C@@H]1[C@@]23OO4,IC50,[5],0.45 ng/mL
same,IC50,[6],0.6 ng/mL
CS(=O)(=O)N1CCN(CCCOc2ccc(C3CCC4(CC3)OOC3(OO4)C4CC5CC(C4)CC3C5)cc2)CC1 (stereo not drawn),pIC50,[5],8.43
CC1(C)CCCCC12OOC1(CCCCC1(C)C)OO2 (stereo not drawn),pIC50,[2],< 6.00
same,pIC50,[3],< 6.00
C[C@@H]1CC[C@H]2[C@@H](CCCc3ccc(Cl)cc3)C(=O)O[C@@H]3O[C@]4(C)CC[C@@H]1[C@]32OO4,IC50,[2],2.6 ng/mL
same,IC50,[3],1.9 ng/mL
C[C@H]1[C@H](N2CCN([C@@H]3O[C@@H](C)[C@H](O)[C@@H](O)[C@H]3O)CC2)O[C@@H]2O[C@]3(C)CC[C@H]4[C@H](C)CC[C@@H]1[C@@]24OO3,pIC50,[2],9.13
same,pIC50,[4],9.13
COC(=O)CC[C@@H](C)[C@H]1CCC2C3CC[C@@H]4CC5(CC[C@]4(C)C3C[C@H](OC(C)=O)[C@@]21C)OOC(C)(C(F)(F)F)OO5 (stereo partly drawn),pIC50,[6],8.12
C[C@@H]1CC[C@H]2[C@@H](C)C(=O)N(S(=O)(=O)c3cccc4cccnc34)[C@@H]3O[C@]4(C)CC[C@@H]1[C@@]23OO4,IC50,[5],1.9 ng/mL
same,IC50,[6],2 ng/mL
CC1=C(C(O)(c2ccccc2)c2ccccc2)O[C@@H]2O[C@]3(C)CC[C@H]4[C@H](C)CC[C@@H]1[C@@]24OO3,pIC50,[1],8.35
CC1(C)OOC2(OCc3ccccc3)CCCC1C2 (stereo not drawn),pIC50,[2],6.37
same,pIC50,[4],6.10
C[C@@H]1CC[C@H]2[C@@H](C)C(=O)N(S(=O)(=O)c3cccc([N+](=O)[O-])c3)[C@@H]3O[C@]4(C)CC[C@@H]1[C@@]23OO4,IC50,[5],2.1 ng/mL
same,IC50,[6],2.2 ng/mL
C[C@H]1[C@H](Nc2ccc(Br)cc2)O[C@@H]2O[C@]3(C)CC[C@H]4[C@H](C)CC[C@@H]1[C@@]24OO3,IC50,[2],0.23 ng/mL
same,IC50,[3],0.23 ng/mL
